Experimental data reported in PubChem BioAssay AID1259411 (Chemical Carcinogenesis Research Information System (CCRIS), 2018).
Calls of active or inactive are those of the source. No rule for the calls is given here.

Tested on: rodent carcinogenicity bioassays, tumor incidence
Test: CCRIS carcinogenicity studies
In short: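 Archive of carcinogenicity, mutagenicity, tumor promotion and tumor inhibition results drawn from journals, NCI reports and other sources, expert-reviewed; covers 1985-2011 and is no longer updated.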

O=C1c2ccccc2C(=O)c2ccccc21
carcinogen call (Species: MOUSE, Strain/Sex: B6C3F1/MALE, Route: DIET, Dose: 0, 833, 2500, 7500 PPM FOR 2 YR (STUDY DURATION: 2 YRS), Dose: 0, 833, 2500, 7500 PPM FOR 2 YR (STUDY DURATION: 2 YRS), Tumor Site: Type of Lesion: LIVER: HEPATOCELLULAR ADENOMA, CARCINOMA OR HEPATOBLASTOMA): active; positive
carcinogen call (Species: RAT, Strain/Sex: F344/N/MALE, Route: DIET, Dose: 0, 469, 938, 1875, 3750 PPM FOR 2 YRS (STUDY DURATION: 2YRS), Dose: 0, 469, 938, 1875, 3750 PPM FOR 2 YRS (STUDY DURATION: 2YRS), Tumor Site: Type of Lesion: KIDNEY: RENAL TUBULE ADENOMA OR CARCINOMA, LIVER: HEPATOCELLULAR ADENOMA): active; positive
carcinogen call (Species: RAT, Strain/Sex: F344/N/MALE, Route: DIET, Dose: 0, 469, 938, 1875, 3750 PPM FOR 2 YRS (STUDY DURATION: 2YRS), Dose: 0, 469, 938, 1875, 3750 PPM FOR 2 YRS (STUDY DURATION: 2YRS), Tumor Site: Type of Lesion: KIDNEY: RENAL TUBULE ADENOMA, BLADDER: PAPILLOMA): active; positive; no true dose response, p values = 0.01 in these 2 cases; all others no

Cn1c(=O)c2c(ncn2C)n(C)c1=O (tested in a mixture with another compound)
carcinogen call (Species: MOUSE, Strain/Sex: B6C3F1/FEMALE, Route: ORAL, Dose: 0, 0.7, 1.4% OF DIET FOR 78 WK (STUDY DURATION: 94 WK), Dose: 0, 0.7, 1.4% OF DIET FOR 78 WK (STUDY DURATION: 94 WK)): inactive; negative
carcinogen call (Species: MOUSE, Strain/Sex: B6C3F1/MALE, Route: ORAL, Dose: 0, 0.7, 1.4% OF DIET FOR 78 WK (STUDY DURATION: 94 WK), Dose: 0, 0.7, 1.4% OF DIET FOR 78 WK (STUDY DURATION: 94 WK)): inactive; negative
carcinogen call (Species: RAT, Strain/Sex: F344/FEMALE, Route: ORAL, Dose: 0, 0.7, 1.4% OF DIET FOR 78 WK (STUDY DURATION: 113 WK), Dose: 0, 0.7, 1.4% OF DIET FOR 78 WK (STUDY DURATION: 113 WK), Tumor Site: Type of Lesion: BLADDER: TRANSITIONAL CELL CARCINOMA, KIDNEY: TUBULAR CELL ADENOCARCINOMA, TRANSITIONAL CELL PAPILLOMA): equivocal
carcinogen call (Species: RAT, Strain/Sex: F344/MALE, Route: ORAL, Dose: 0, 0.7, 1.4% OF DIET FOR 78 WK (STUDY DURATION: 113 WK), Dose: 0, 0.7, 1.4% OF DIET FOR 78 WK (STUDY DURATION: 113 WK)): inactive; negative

CN1COCN(Cc2cnc(Cl)s2)/C1=N/[N+](=O)[O-]
carcinogen call (Species: MOUSE, Strain/Sex: TIF:MAGF/MALE, Route: DIET, Dose: 0, 50, 200, 500, 1250, 2500, 5000 PPM IN DIET FOR UP TO 50 WKS (STUDY DURATION: 50 WKS), Dose: 0, 50, 200, 500, 1250, 2500, 5000 PPM IN DIET FOR UP TO 50 WKS (STUDY DURATION: 50 WKS)): inactive; negative for tumors but apoptosis and necrosis observed in liver at doses of 500
carcinogen call (Species: RAT, Strain/Sex: TIF:RAIF/FEMALE, Route: ORAL (DIET), Dose: 0, 1000, 3000 PPM FOR 1, 10, 20, 30, 40, OR 50 WKS, Dose: 0, 1000, 3000 PPM FOR 1, 10, 20, 30, 40, OR 50 WKS): inactive; negative

Cc1ccccc1N=O
carcinogen call (Species: RAT, Strain/Sex: F344/MALE, Route: ORAL, Dose: 3.38 G/KG- DIET FOR 72 WK (TOTAL DOSE 0.21 MOL/RAT), Tumor Site: Type of Lesion: LIVER: HEPATOMA, URINARY BLADDER: PAPILLOMA, PERITONEAL CAVITY: MESOTHELIOMA, SARCOMA, SPLEEN: FIBROMA, INTEGUMENTARY SY, Tumor Site: Type of Lesion: LIVER: HEPATOMA, URINARY BLADDER: PAPILLOMA, PERITONEAL CAVITY: MESOTHELIOMA, SARCOMA, SPLEEN: FIBROMA, INTEGUMENTARY SY): active; positive

CCCC[N+](=O)[O-]
carcinogen call (Species: RAT, Strain/Sex: F344/MALE, Route: GAVAGE, Dose: 0, 2 MMOL/KG BW 1/WK FOR 50 WK (STUDY DURATION: 83 WK)): inactive; negative

NNc1nc(-c2ccc([N+](=O)[O-])o2)cs1
carcinogen call (Species: RAT, Strain/Sex: SPRAGUE-DAWLEY/FEMALE, Route: ORAL, Dose: 0, 0.089% OF DIET FOR 46 WK FOLLOWED BY CONTROL DIET FOR 20 WK FOR A TOTAL DOSE OF 0, 4.2 G (STUDY DURATION: 66 WK), Dose: 0, 0.089% OF DIET FOR 46 WK FOLLOWED BY CONTROL DIET FOR 20 WK FOR A TOTAL DOSE OF 0, 4.2 G (STUDY DURATION: 66 WK), Tumor Site: Type of Lesion: MAMMARY GLAND: ADENOCARCINOMA, MAMMARY GLAND: ADENOFIBROMA OR FIBROADENOMA): active; positive

C#CCN1C(=O)COc2cc(F)c(N3C(=O)C4=C(CCCC4)C3=O)cc21
carcinogen call (Species: Mouse, Strain/Sex: Crj:CD-1 (ICR)/Female (51/Group), Route: Oral, Dose: 0, 36.6, 346.4, 859.1 mg/kg/day of 94.8% flumioxazin in diet for 78 wk, study duration 78 wk, Dose: 0, 36.6, 346.4, 859.1 mg/kg/day of 94.8% flumioxazin in diet for 78 wk, study duration 78 wk): inactive; negative
carcinogen call (Species: Mouse, Strain/Sex: Crj:CD-1 (ICR)/Male (51/Group), Route: Oral, Dose: 0, 31.1, 314.9, 754.1 mg/kg/day of 94.8% flumioxazin in diet for 78 wk, study duration 78 wk, Dose: 0, 31.1, 314.9, 754.1 mg/kg/day of 94.8% flumioxazin in diet for 78 wk, study duration 78 wk): inactive; negative
carcinogen call (Species: Rat, Strain/Sex: Crj:CD(SD)/Female (50/Group), Route: Oral, Dose: 0, 2.2, 21.8, 43.6 mg/kg/day of 94.8% flumioxazin in diet for up to 2 yr, study duration 2 yr, Dose: 0, 2.2, 21.8, 43.6 mg/kg/day of 94.8% flumioxazin in diet for up to 2 yr, study duration 2 yr): inactive; negative
carcinogen call (Species: Rat, Strain/Sex: Crj:CD(SD)/Male (50/Group), Route: Oral, Dose: 0, 1.8, 18.0, 36.5 mg/kg/day of 94.8% flumioxazin in diet for up to 2 yr, study duration 2 yr, Dose: 0, 1.8, 18.0, 36.5 mg/kg/day of 94.8% flumioxazin in diet for up to 2 yr, study duration 2 yr): inactive; negative

FC(F)(F)C(Cl)Cl
carcinogen call (Species: RAT, Strain/Sex: CRL:CDBR/FEMALE, Route: INHALATION, Dose: 0, 300, 1000, 5000 PPM 6 HR/D 5 D/WK FOR 2 YR (STUDY DURATION: 2 YR), Dose: 0, 300, 1000, 5000 PPM 6 HR/D 5 D/WK FOR 2 YR (STUDY DURATION: 2 YR), Tumor Site: Type of Lesion: LIVER: ADENOMA, CHOLANGIOFIBROMA): active; positive
carcinogen call (Species: RAT, Strain/Sex: CRL:CDBR/MALE, Route: INHALATION, Dose: 0, 300, 1000, 5000 PPM 6 HR/D 5 D/WK FOR 2 YR (STUDY DURATION: 2 YR), Dose: 0, 300, 1000, 5000 PPM 6 HR/D 5 D/WK FOR 2 YR (STUDY DURATION: 2 YR), Tumor Site: Type of Lesion: LIVER: ADENOMA, PANCREAS: ADENOMA, TESTES: ADENOMA, Tumor Site: Type of Lesion: LIVER: ADENOMA, PANCREAS: ADENOMA, TESTES: ADENOMA): active; positive
